The source made the active and inactive calls. The rule behind the calls is not given here.
What was measured:
[1] = tested on: Plasma; assay: Anticoagulant activity in rabbit plasma assessed as increase in activated partial thromboplastin time; assay type: functional, cell-free; conditions: Oryctolagus cuniculus
[2] = tested on: Oryctolagus cuniculus; assay: Antithrombotic effect in New Zealand rabbit assessed as incidence of complete arterial occlusion at 3 mg/kg, po relative to control; assay type: functional
[3] = tested on: Oryctolagus cuniculus; assay: Anticoagulant activity in New Zealand rabbit assessed as increase in activated partial thromboplastin time at 1 mg/kg, iv relative to untreated control; assay type: functional
[4] = organism: Homo sapiens; assay: Stimulation of antithrombin-3-induced inhibition of human alpha-thrombin at 0.2 to 2000 ug/mL
[5] = tested on: Oryctolagus cuniculus; assay: Effect on blood pressure in New Zealand rabbit assessed arterial blood pressure at 1 mg/kg, iv after 2 hrs; assay type: functional
[6] = Toxicity in rat; assay type: organism-based; conditions: in vivo
[7] = tested on: Oryctolagus cuniculus; assay: Anticoagulant activity in New Zealand rabbit assessed as increase in activated partial thromboplastin time at 1 mg/kg, iv after 120 mins; assay type: functional, organism-based; parameters: dose 1 mg/kg
[8] = organism: Oryctolagus cuniculus; assay: Stimulation of heparin cofactor-2-induced inhibition of alpha-thrombin in rabbit plasma assessed as [125I]-thrombin-heparin cofactor-2 complex formation by SDS-PAGE and autoradiography; assay type: cell-free
[9] = organism: Homo sapiens; assay: Stimulation of heparin cofactor-2-induced inhibition of human alpha-thrombin
[10] = tested on: Oryctolagus cuniculus; assay: Anticoagulant activity in New Zealand rabbit assessed as increase in activated partial thromboplastin time at 1 mg/kg, po after 4 hrs relative to untreated control; assay type: functional
[11] = tested on: Oryctolagus cuniculus; assay: Increase in bleeding time in New Zealand rabbit at 1 mg/kg, po relative to control; assay type: organism-based; parameters: dose 1 mg/kg, route oral; conditions: in vivo
[12] = tested on: Oryctolagus cuniculus; assay: Anticoagulant activity in New Zealand rabbit assessed as increase in activated partial thromboplastin time at 1 mg/kg, po after 8 hrs; assay type: functional, organism-based; parameters: dose 1 mg/kg
[13] = organism: Oryctolagus cuniculus; assay: Stimulation of antithrombin-3-induced inhibition of alpha-thrombin in rabbit plasma assessed as [125I]-thrombin-antithrombin-3 complex formation by SDS-PAGE and autoradiography; assay type: cell-free
[14] = tested on: Oryctolagus cuniculus; assay: Antithrombotic effect in New Zealand rabbit assessed as time duration to occlusion at 3 mg/kg, po relative to control; assay type: functional
[15] = tested on: Plasma; assay: Anticoagulant activity in human plasma assessed as increase in activated partial thromboplastin time; assay type: functional, cell-free
[16] = tested on: Rattus norvegicus; assay: Antiarrhythmic activity in Ivanovas rat assessed as increase LD100 at 5 mg/kg, iv administered 5 mins before aconitine infusion; assay type: functional, Heart

Compound | Activity [1] | Activity [2] [%] | fold change (FC) [3] | Activity [4] | Activity [5] [mmHg] | LD50 [6] [mg/kg] | Activity [7] | Activity [8] | inhibition [9] | fold change (FC) [10] | fold change (FC) [11] | Activity [12] | Activity [13] | fold change (FC) [14] | Activity [15] | Activity [16] [%]
O=C(CC(=O)Nn1c(=O)c2cc3c(=O)n(NC(=O)CC(=O)Nc4nccs4)c(=O)c3cc2c1=O)Nc1nccs1 | Dose-dependent effect | 42.85 | 4 | inactive | 68.12 | 336 | Active | Active | Active | 2 | 3.28 | Active | inactive | 10 | Dose-dependent effect | 86
COC(=O)/C(C(=O)Nc1nccs1)=C1/SC=C(C)N1c1ccccc1 |  |  |  | inactive |  | 434 |  | Active |  |  |  |  | inactive |  |  | 90.3
COC(=O)/C(C(=O)Nc1nccs1)=C1/SC(C(C)=O)=C(C)N1c1ccccc1 |  |  |  | inactive |  | 674 |  | Active |  |  |  |  | inactive |  |  | 88.8
COC(=O)/C(C(=O)Nc1nccs1)=C1/SC(C(C)=O)=NN1c1ccc(S(N)(=O)=O)cc1 |  |  |  | inactive |  | 456 |  | Active |  |  |  |  | inactive |  |  | 90.9
COC(=O)/C(C(=O)Nc1nccs1)=C(/S)Nc1ccccc1 |  |  |  | inactive |  | 543 |  | Active |  |  |  |  | inactive |  |  | 80.2
O=C(CC(=O)Nc1nccs1)NNC(=S)[S-].[K+] [HYDRAZINECARBODITHIONIC ACID POTASSIUM SALT] |  |  |  | inactive |  | 723 |  | Active |  |  |  |  | inactive |  |  | 90.15
O=C(CC(=O)NN1C(=O)c2c(Cl)c(Cl)c(Cl)c(Cl)c2C1=O)Nc1nccs1 |  |  |  | inactive |  | 443 |  | Active |  |  |  |  | inactive |  |  | 87.1
COC(=O)/C(C(=O)Nc1nccs1)=C1/SCC(=O)N1c1ccccc1 |  |  |  | inactive |  | 444 |  | Active |  |  |  |  | inactive |  |  | 83
COC(=O)/C(C(=O)Nc1nccs1)=C1/SC(C(C)=O)=NN1c1ccc(S(=O)(=O)N2C(=O)c3c(Cl)c(Cl)c(Cl)c(Cl)c3C2=O)cc1 |  |  |  | inactive |  | 564 |  | Active |  |  |  |  | inactive |  |  | 88
O=C(CC(=O)NN1C(=O)c2ccc3c4c(ccc(c24)C1=O)C(=O)N(NC(=O)CC(=O)Nc1nccs1)C3=O)Nc1nccs1 | Dose-dependent effect | 24.57 | 7 | inactive | 67.4 | 445 | Active | Active | Active | 3 | 4.33 | Active | inactive | 12 | Dose-dependent effect | 85
CC(=O)c1nn(-c2ccc(S(N)(=O)=O)cc2)/c(=N/NC(=O)CC(=O)Nc2nccs2)s1 |  |  |  | inactive |  | 546 |  | Active |  |  |  |  | inactive |  |  | 85
CCOC(=O)C1=NN(c2ccc(Cl)cc2)/C(=C(/C(=O)Nc2nccs2)C(=O)OC)S1 |  |  |  | inactive |  | 435 |  | Active |  |  |  |  | inactive |  |  | 84
COC(=O)/C(C(=O)Nc1nccs1)=C1/SC=C(c2ccccc2)N1c1ccccc1 |  |  |  | inactive |  | 724 |  | Active |  |  |  |  | inactive |  |  | 88
NNC(=O)CC(=O)Nc1nccs1 |  |  |  | inactive |  | 736 |  | Active |  |  |  |  | inactive |  |  | 87.5
CCOC(=O)c1nn(-c2ccc(Br)cc2)/c(=N/NC(=O)CC(=O)Nc2nccs2)s1 |  |  |  | inactive |  | 342 |  | Active |  |  |  |  | inactive |  |  | 80.1
O=C(CC(=O)Nn1c(-c2ccccc2)csc1=S)Nc1nccs1 |  |  |  | inactive |  | 292 |  | Active |  |  |  |  | inactive |  |  | 90.6
